Data: the supplement of paper PMC13380429

How the values were obtained:
Settings in all cases: 72 h
U2OS [1] = assay: relative viability EC50 (midpoint between 100% and the lowest measured viability); higher = less toxic
HepG2 [2] = assay: as above
Caco-2 [3] = assay: cell viability relative to DMSO; higher = less toxic
U2OS [4] = assay: as above
Vero E6 [5] = assay: as above
HepG2 [6] = assay: as above
Caco-2 [7] = assay: drug sensitivity score (DSS) for viability; higher = more toxic; extreme values may be limits of the assay
U2OS [8] = assay: as above
Vero E6 [9] = assay: as above
HepG2 [10] = assay: as above
Vero E6 [11] = assay: relative viability EC50 (midpoint between 100% and the lowest measured viability); higher = less toxic
Caco-2 [12] = assay: as above
Calu-3 [13] = assay: as above
Calu-3 [14] = assay: cell viability relative to DMSO; higher = less toxic
Calu-3 [15] = assay: drug sensitivity score (DSS) for viability; higher = more toxic; extreme values may be limits of the assay

| Structure (SMILES) | relative viability EC50 (U2OS [1]) [µM] | relative viability EC50 (HepG2 [2]) [µM] | cell viability (Caco-2 [3]; 1 nM) [%] | cell viability (Caco-2 [3]; 10 nM) [%] | cell viability (Caco-2 [3]; 100 nM) [%] | cell viability (Caco-2 [3]; 1000 nM) [%] | cell viability (Caco-2 [3]; 10000 nM) [%] | cell viability (U2OS [4]; 1 nM) [%] | cell viability (U2OS [4]; 10 nM) [%] | cell viability (U2OS [4]; 100 nM) [%] | cell viability (U2OS [4]; 1000 nM) [%] | cell viability (U2OS [4]; 10000 nM) [%] | cell viability (Vero E6 [5]; 1 nM) [%] | cell viability (Vero E6 [5]; 10 nM) [%] | cell viability (Vero E6 [5]; 100 nM) [%] | cell viability (Vero E6 [5]; 1000 nM) [%] | cell viability (Vero E6 [5]; 10000 nM) [%] | cell viability (HepG2 [6]; 1 nM) [%] | cell viability (HepG2 [6]; 10 nM) [%] | cell viability (HepG2 [6]; 100 nM) [%] | cell viability (HepG2 [6]; 1000 nM) [%] | cell viability (HepG2 [6]; 10000 nM) [%] | drug sensitivity score (Caco-2 [7]) | drug sensitivity score (U2OS [8]) | drug sensitivity score (Vero E6 [9]) | drug sensitivity score (HepG2 [10]) | relative viability EC50 (Vero E6 [11]) [µM] | relative viability EC50 (Caco-2 [12]) [µM] | relative viability EC50 (Calu-3 [13]) [µM] | cell viability (Calu-3 [14]; 1 nM) [%] | cell viability (Calu-3 [14]; 10 nM) [%] | cell viability (Calu-3 [14]; 100 nM) [%] | cell viability (Calu-3 [14]; 1000 nM) [%] | cell viability (Calu-3 [14]; 10000 nM) [%] | drug sensitivity score (Calu-3 [15]) |
| --- | --- | --- | --- | --- | --- | --- | --- | --- | --- | --- | --- | --- | --- | --- | --- | --- | --- | --- | --- | --- | --- | --- | --- | --- | --- | --- | --- | --- | --- | --- | --- | --- | --- | --- | --- |
| CS(=O)(=O)CCNCc1nc(-c2ccc3ncnc(Nc4ccc(OCc5cccc(F)c5)c(Cl)c4)c3c2)cs1 | > 10 | > 10 | 97.1 | 97.5 | 90.5 | 80.8 | 73.1 | 99.9 | 100 | 96.7 | 94.2 | 89.8 | 95 | 98.3 | 93.3 | 79 | 72.5 | 106 | 111 | 93.5 | 102 | 104 | 3.5 | 0 | 3.7 | 0 | – | – | – | – | – | – | – | – | – |
| CC(C)(N)c1cc(C(=O)N[C@@H]2CCc3ccc(Oc4ccnc5c4CCC(=O)N5)cc3C2)cc(C(F)(F)F)c1 [ML786] | 1.76 | 0.221 | 108 | 92.7 | 104 | 90.8 | 68.5 | 101 | 98.6 | 100 | 82.4 | 9.6 | 106 | 105 | 112 | 99 | 33.5 | 99.2 | 110 | 62.4 | 31.1 | 6.8 | 2.7 | 7.9 | 3.8 | 17.5 | 3.06 | – | – | – | – | – | – | – | – |
| CCCCc1nc(C)c(CC(=S)N(C)C)c(=O)n1Cc1ccc(-c2ccccc2-c2nnn[nH]2)cc1 [fimasartan] | > 10 | – | 94.2 | 89.4 | 90.8 | 96.9 | 113 | 107 | 96.6 | 102 | 101 | 104 | 98 | 95.8 | 93 | 101 | 106 | – | – | – | – | – | 0 | 0 | 0 | – | > 10 | > 10 | > 10 | 94.9 | 99.5 | 128 | 94.4 | 115 | 0 |
| CN1CCN(c2cccc(Nc3nc4c(-c5ccc(S(C)(=O)=O)cc5)cccn4n3)c2)CC1 | – | – | 78.9 | 95.2 | 95.1 | 93.1 | 91 | 96.1 | 102 | 94.8 | 95.8 | 68.9 | 96.4 | 95.1 | 94.8 | 96.3 | 73.6 | 100 | 95.9 | 94.1 | 84.8 | 58.9 | 0 | 2.1 | 1.6 | 3.6 | – | > 10 | > 10 | 97.9 | 99.4 | 91.8 | 125 | 136 | 0 |
| CC(C)=CCc1c(O)cc(O)c2c(=O)c(O)c(-c3ccc(C(F)(F)F)cc3)oc12 [SNG-1153] | 3.14 | 3.43 | 92.1 | 93.8 | 98.1 | 95.8 | 40 | 96.7 | 94.7 | 94.5 | 99.9 | 43.2 | 100 | 94.3 | 100 | 93 | 50.7 | 97.3 | 98.8 | 106 | 103 | 40.2 | 3.9 | 3.1 | 3.8 | 3 | – | 2.6 | – | 114 | 89.6 | 108 | 99.3 | 68.1 | 1.5 |
| NC(=O)OCCCc1ccccc1 [phenprobamate] | > 10 | > 10 | 104 | 95.4 | 99.1 | 102 | 104 | 102 | 98.6 | 103 | 102 | 98.9 | – | – | – | – | – | 105 | 109 | 95 | 98.6 | 112 | 0 | 0 | – | 0 | – | > 10 | – | – | – | – | – | – | – |
| OC[C@H]1O[C@@H](Oc2cc3c(O)cc(O)cc3[o+]c2-c2ccc(O)c(O)c2)[C@H](O)[C@@H](O)[C@@H]1O [kuromanin] | > 10 | – | 98.3 | 95.4 | 86.5 | 100 | 96.7 | 96.6 | 99.8 | 96.6 | 99.5 | 93.6 | 103 | 102 | 103 | 98 | 94.4 | – | – | – | – | – | 0 | 0 | 0 | – | > 10 | > 10 | > 10 | 98.7 | 111 | 89.7 | 102 | 98.8 | 0 |
| O=C1NC(=O)c2cc(Nc3ccccc3)c(Nc3ccccc3)cc21 | – | – | 92.3 | 101 | 91.7 | 102 | 82.5 | – | – | – | – | – | 96.3 | 99.2 | 98.6 | 97.4 | 86.3 | 109 | 106 | 105 | 100 | 56.4 | 0.3 | – | 0.3 | 2.2 | > 10 | > 10 | > 10 | 108 | 96.9 | 106 | 98.5 | 89.3 | 0 |
